Test results taken from patent publication US20250134095A1, “COMPOSITIONS FOR ORGAN AND TISSUE PRESERVATION” (Albert Einstein College of Medicine, priority 2021, published 2025).
Entries after “also recorded” stand apart in the source; their conditions may differ. Peptide text beside a SMILES is read from it. * marks the point of attachment. Cbz = O=C(OCc1ccccc1)*; CH2F = FC*

How the values were obtained:
mouse kidneys = assay: TUNEL staining for cell death in cold stored mouse kidneys; conditions: 2 mg/kg total mouse weight in University of Wisconsin cold preservation solution, flush at organ recovery and storage, 72 hours cold storage
Source text: (§1) Methods: TUNEL Staining and Quantification. Frozen kidney sections were fixed with 4% paraformaldehyde and stained according to standard protocols for the In Situ Cell Death Detection Kit, TMR red (Millipore Sigma). The number of DAPI positive and TUNEL positive cells were quantified using cell counter macros in ImageJ across mouse, pig, and human samples.
(§2) Murine and Porcine Kidney Recoveries. Mouse and pig kidneys were recovered using standard organ recovery protocols. Prior to flushing the abdominal cavity with preservation solution, mice and pigs were given heparin to help increase flow and prevent clotting within the system.
Bax KO or Wildtype mice (3× per group) were euthanized and then organs recovered following standard organ transplant procedures. […] At the proscribed time points, kidneys were snap frozen for subsequent cell death assessment by fluorescent TUNEL staining of frozen sections collected on an EVOS2 scope. Quantification of TUNEL staining was performed with custom matlab code following standard image analysis procedures.
(§3) Mice were flushed with BAI supplemented University of Wisconsin solution (2 mg/kg total mouse weight) at time of organ recovery. Mouse kidneys were stored in the same concentration of BAI1 supplemented preservation solution that was used to flush the mice at time of organ harvest. Pig kidneys were flushed with 500 mL of University of Wisconsin solution supplemented with BAI1 at 10 μg/mL. They were then stored at 4° C. in 500 mL of University of Wisconsin solution supplemented with BAI1 at 10 μg/mL for 72 hours.

pig kidneys = assay: TUNEL staining for cell death in cold stored pig kidneys; conditions: flushed and stored at 4° C. in University of Wisconsin solution with 10 μg/mL, 72 hours
Source text: as §1, §2, §3

human organ culture = assay: Cell death in human organ culture model (kidney)
Experimental: as §1
To better appreciate how kidneys respond to cold ischemia, a series of […] kidneys was biopsied at times from 12 to 72 hours of cold storage. To decreased observed cell death, a Bax inhibitor (BAI1) was tested in a human organ culture model.
To assess the extent of cell death during cold preservation, a series of eleven human kidneys were repeatedly biopsied at times from 12 to 72 hours of cold storage. […] Cell death increased over time and became apparent in marginal donors between 30-36 hours of cold storage. Human kidneys with the cell death phenotype were also shown to have distinct upregulation of metabolites (e.g. xylose, isothreonic acid, 3-hydroxy-3-methylglutaric acid, conduritol-beta-epoxide, hippuric acid, pseudo uridine, hydroxyproline dipeptide, 4-hydroxyhippuric acid) as compared to the younger, healthier cohort of organs.

Row | SMILES | cell death during prolonged cold storage (TUNEL staining) (mouse kidneys) | cell death during prolonged cold storage (TUNEL staining) (pig kidneys) | cell death in human organ culture after a period of warm injury (human organ culture; after a period of warm injury) | cell death in human organ culture during cold storage (human organ culture; during cold storage)
1 | COC(=O)C[C@H](NC(=O)[C@H](C)NC(=O)[C@@H](NC(=O)OCc1ccccc1)C(C)C)C(=O)CF [Z-VAD-FMK] (Cbz-Val-Ala-Asp(OMe)-CH2F) | did not appear to reduce the amount of cell death | – | – | –
2 | CCOC(=O)c1ccc(NC2CCCCC2)c(N)c1 [ferrostatin-1] | did not appear to reduce the amount of cell death | – | – | –
3 | CN1C(=O)C(Cc2c[nH]c3ccccc23)NC1=S (stereo not shown) [necrostatin-1] | did not appear to reduce the amount of cell death | – | – | –
4 | OC(CN1CCNCC1)Cn1c2ccc(Br)cc2c2cc(Br)ccc21 (stereo not shown) [BAI1] | prevents cell death; also recorded: abrogates cell death | prevents cell death | significantly decreased cell death | significantly decreased cell death
